Bridges are numbered along the chain shown (N, C = ends). Where no end group is shown, it is not given here. [ ]: non-standard residue; d: D form.
What was measured:
Stability in serum = format: in vitro ADME; details: 37° C., completely stable
Source text: As an approach to identifying such stable analogs, various derivatives of (S)-3-(undec-10-enoyl)-aminoglutarimide have been tested for their stability in serum.

[1] = test system: chemokine-induced migration; details: versus (S)-3-(undec-10-enoyl)-aminoglutarimide; cited from earlier work
[2] = test system: MCP-1 induced leukocyte migration (THP-1 cells); experiment: Inhibition of MCP-1 induced leukocyte migration (96-well transwell assay, THP-1 cells); format: cell-based; details: Homo sapiens, MCP-1 25 ng/ml, 2 hours at 37° C., read-out: ED50 (concentration of compound required to reduce the MCP-1-induced migration by 50%)
Description: In principle, this assay consists of two chambers separated by a porous membrane. The chemoattractant is placed in the lower compartment and the cells are placed in the upper compartment. After incubation for a period at 37° C. the cells move towards the chemoattractant, and the number of cells in the lower compartment is proportional to the chemoattractant activity (relative to a series of controls).
The THP-1 cell line (European Cell culture Collection) were used as the leukocyte cell population.
The following procedure is used for testing the invention compounds for MCP-1 induced leukocyte migration:
First, the cell suspension to be placed in the upper compartment is prepared. The THP-1 cells are pelleted by centrifugation (770×g; 4 mins) and washed with Geys Balanced Salt Solution with 1 mg/ml BSA (GBSS+BSA). This wash is then repeated, and the cells repelleted before being resuspended in a small volume of GBSS+BSA for counting, for example using a standard haemocytometer.
The volume of GBSS+BSA is then adjusted depending on the number of cells present so that the cells are at final density of 4.45×10^6 cells per ml of GBSS+BSA. This ensures that there are […] THP-1 cells in each 25 μl of the solution that will be placed in the upper chamber of the plate.
To test a single compound for its ability to inhibit MCP-1 induced migration, it is necessary to prepare two lots of cells. The suspension of THP-1 cells at 4.45×10^6 cells/ml is divided into two pots. To one pot the inhibitor under test is added at an appropriate final concentration, in an appropriate vehicle (for example at 1 μM in not more than 1% DMSO). To the second pot an equal volume of GBSS+BSA plus vehicle as appropriate (e.g. not more than 1% DMSO) is added to act as a control.
Next, the chemoattractant solution to be placed in the lower compartment is prepared. MCP-1 is diluted in GBSS+BSA to give a final concentration of 25 ng/ml. This is divided into two pots, as for the cell suspension. To one pot, the test compound is added to the same final concentration as was added to the cell suspension, while to the other pot an equal volume of GBSS+BSA plus vehicle as appropriate (e.g. not more than 1% DMSO) is added.
Note that the volume of liquid that needs to be added to make the addition of the text compound needs to be taken into account, when establishing the final concentration of MCP-1 in the solution for the lower compartment and the final concentration of cells in the upper compartment.
Once the chemoattractant solutions for the lower wells and cell solutions for the upper chambers have been prepared, the migration chamber should be assembled. Place 29 μl of the appropriate chemoattractant solution into the lower well of the chamber. Assays should be performed with at least triplicate determinations of each condition. Once all the lower chambers have been filled, apply the prous membrane to the chamber in accordance with the manufacturer's instructions. Finally, apply 25 μl of the appropriate cell solution to each upper chamber. A plastic lid is placed over the entire apparatus to prevent evaporation.
The assembled chamber is incubated at 37° C., 5% CO2, for 2 hours. A suspension of cells in GBSS+BSA is also incubated under identical conditions in a tube: these cells will be used to construct a standard curve for determining the number of cells that have migrated to the lower chamber under each condition. […]

[3] = cited from earlier work

EC50 [2]	Compound	other results
–	C=CCCCCCCCCC(=O)[C@@H]1CCCNC1=O [(S)-3-(undec-10-enoyl)-tetrahydropyridin-2-one]	stability in human serum (Stability in serum): at least 7 days; potency compared with the parental molecule [1]: considerably reduced potency
≤ 100 nM	CCCCCCCCCCC(C)(C)C(=O)N[C@H]1CCCNC1=O [Example 3, (S)-3-(2′,2′-Dimethyldodecanoylamino)-tetrahydropyridin-2-one]	–
≤ 100 nM	CCCCCCCCCCC(C)(C)C(=O)N[C@H]1CCNC1=O [Example 4, (S)-3-(2′,2′-Dimethyldodecanoylamino)-pyrrolidin-2-one]	–
≤ 100 nM	CC1(C(=O)N[C@H]2CCCNC2=O)CCCCC1 [Example 5, (S)-3-(1′-Methylcyclohexanecarbonyl)amino-tetrahydropyridin-2-one]	–
≤ 100 nM	CC1(C(=O)N[C@H]2CCNC2=O)CCCCC1 [Example 6, (S)-3-(1′-Methylcyclohexanecarbonyl)amino-pyrrolidin-2-one]	–
≤ 100 nM	O=C1NCCC[C@@H]1NC(=O)C1(c2ccccc2)CCCCC1 [Example 7, (S)-3-(1′-Phenylcyclohexanecarbonyl)amino-tetrahydropyridin-2-one]	–
–	c(DCys-DGln-DIle-DTrp-DLys-DGln-DLys-DPro-DAsp-DLeu-DCys)-NH2 ([dC][dQ][dI][dW][dK][dQ][dK][dP][dD][dL][dC]-NH2; disulfide 1-11 (inferred)) [NR58-3.14.3]	half-life period of clearance from blood plasma ([3]; after intravenous injection): less than 30 minutes; oral bioavailability ([3]; in vivo, po): not orally bioavailable

Reference: patent US20090203739A1, “Anti-Inflammatory Agents” (priority 2005, published 2009)
